Test results from US6465686B2, “Halogenated 2-amino-5,6 heptenoic acid derivatives useful as nitric oxide synthase inhibitors” (Pharmacia Corporation, priority 2000, dated 2002).
Counter-ions that a name gives are not always drawn.

Assays:
[1] = molecular target: T1, Human inducible NOS (hiNOS) (Homo sapiens, UniProt P35228); assay: Citrulline assay for nitric oxide synthase, hiNOS; format: biochemical; details: recombinant enzyme, conversion of L-[2,3-3H]-arginine to citrulline, 30 μM L-arginine
T1 construct: made in house; host or cells: Sf9 insect cells (baculovirus vector)
Excerpt: (§1) Citrulline Assay for Nitric Oxide Synthase
(§2) Nitric oxide synthase (NOS) activity can be measured by monitoring the conversion of L-[2,3-^3H]-arginine to L-[2,3-^3H]-citrulline (Bredt and Snyder, Proc. Natl. Acad. Sci. U.S.A., 87, 682-685, 1990 and Moore et al, J. Med. Chem., 39, 669-672, 1996). Human inducible NOS (hiNOS), human endothelial constitutive NOS (hecNOS) and human neuronal constitutive NOS (hncNOS) are each cloned from RNA extracted from human tissue. The cDNA for human inducible NOS (hiNOS) is isolated from a λcDNA library made from RNA extracted from a colon sample from a patient with ulcerative colitis. The cDNA for human endothelial constitutive NOS (hecNOS) is isolated from a λcDNA library made from RNA extracted from human umbilical vein endothelial cells (HUVEC) and the cDNA for human neuronal constitutive NOS (hncNOS) is isolated from a λcDNA library made from RNA extracted from human cerebellum obtained from a cadaver. The recombinant enzymes are expressed in Sf9 insect cells using a baculovirus vector (Rodi et al, in The Biology of Nitric Oxide, Pt. 4: Enzymology, Biochemistry and Immunology: Moncada, S., Feelisch, M., Busse, R., Higgs, E., Eds.; Portland Press Ltd.: London, 1995; pp 447-450). Enzyme activity is isolated from soluble cell extracts and partially purified by DEAE-Sepharose chromatography. To measure NOS activity, 10 μL of enzyme is added to 40 μL of 50 mM Tris (pH 7.6) in the presence or absence of test compounds and the reaction initiated by the addition of 50 μL of a reaction mixture containing 50 mM Tris (pH 7.6), 2.0 mg/mL bovine serum albumin, 2.0 mM DTT, 4.0 mM CaCl2, 20 μM FAD, 100 μM tetrahydrobiopterin, 0.4 mM NADPH and 60 μM L-arginine containing 0.9 μCi of L-[2,3-^3H]-arginine. The final concentration of L-arginine in the assay is 30 μM. For hecNOS or hncNOS, calmodulin is included at a final concentration of […]. Following incubation at 37° C. for 15 minutes, the reaction is terminated by addition of 400 μL of a suspension (1 part resin, 3 parts buffer) of Dowex 50W X-8 cation exchange resin in a stop buffer containing 10 mM EGTA, 100 mM HEPES, pH 5.5 and 1 mM L-citrulline. After mixing the resin is allowed to settle and L-[2,3-^3H]-Citrulline formation is determined by counting aliquots of the supernatant with a liquid scintillation counter. Results are reported in Table I as the IC50 values of compounds for hiNOS, hecNOS and hncNOS.

[2] = molecular target: T2, human neuronal constitutive NOS (hncNOS) (Homo sapiens, UniProt P29475); assay: Citrulline assay for nitric oxide synthase, hncNOS; format: biochemical; details: recombinant enzyme, conversion of L-[2,3-3H]-arginine to citrulline, 30 μM L-arginine, calmodulin included
T2 construct: made in house; host or cells: Sf9 insect cells (baculovirus vector)
Excerpt: as §1, §2

[3] = molecular target: T3, human endothelial constitutive NOS (hecNOS) (Homo sapiens, UniProt P29474); assay: Citrulline assay for nitric oxide synthase, hecNOS; format: biochemical; details: recombinant enzyme, conversion of L-[2,3-3H]-arginine to citrulline, 30 μM L-arginine, calmodulin included
T3 construct: made in house; host or cells: Sf9 insect cells (baculovirus vector)
Excerpt: as §1, §2

IC50 [1] [µM]	IC50 [2] [µM]	IC50 [3] [µM]	melting point [°C]	Compound
12	105	303	–	CC(=N)NC/C(F)=C/CC[C@H](N)C(=O)O [Example 3, (2S,5Z)-2-amino-6-fluoro-7-[(1-iminoethyl)amino]-5-heptenoic acid, dihydrochloride]
0.36	3.6	68	–	CC(=N)NC/C(F)=C\CC[C@H](N)C(=O)O [Example 1, (2S,5E)-2-amino-6-fluoro-7-[(1-iminoethyl)amino]-5-heptenoic acid, dihydrochloride, monohydrate]
8.6	65	112	–	CC(=N)NC/C(F)=C/CC[C@H](N)C(=O)O [Example 4, (2S,5Z)-2-amino-6-fluoro-7-[(1-iminoethyl)amino]-5-heptenoic acid, trihydrochloride, dihydrate]
2.2	21	195	–	CC(=N)NCC(F)=CCC[C@H](N)C(=O)O (mixture of isomers) [Example 2, (2S,5E/Z)-2-amino-6-fluoro-7-[(1-iminoethyl)amino]-5-heptenoic acid, dihydrochloride]
< 5	29	279	–	CC(=N)NC/C(F)=C\CC[C@@H](N)C(=O)O [Example 5, (2R,5E)-2-amino-6-fluoro-7-[(1-iminoethyl)amino]-5-heptenoic acid, dihydrochloride, monohydrate]
–	–	–	198 to 200	CC(=NO)NC/C(F)=C\CC[C@H](N)C(=O)O [Example 10, (2S,5E)-2-amino-6-fluoro-7-[(1-hydroximinoethyl)amino]-5-heptenoic acid]
